From ChEMBL document CHEMBL4699489, “Optimized Opioid-Neurotensin Multitarget Peptides: From Design to Structure-Activity Relationship Studies” (J Med Chem, 2020) come the findings set out here.

The target of test [1] is T1, Neurotensin receptor type 1 (Homo sapiens, UniProt P30989). The test can be described thus: Displacement of [125I]-neurotensin from human recombinant NTS1 stably expressed in CHO-K1 cell membranes incubated for 60 mins by gamma counter method.
Test [2] deals with Neurotensin receptor type 2 (Homo sapiens, UniProt O95665). Kind of test: Displacement of [125I]-neurotensin from human recombinant NTS2 stably expressed in human 1321N1 cell membranes incubated for 60 mins by gamma counter method.
Test [3] addresses T1, Neurotensin receptor type 1. The test can be described thus: Agonist activity at human NTS1 expressed in HEK293 cells co-expressing Galphaq/RlucII/GFP10-Ggamma1/Gbeta1 assessed as increase in Gq activation incubated for 10 mins in presence of coelenterazine 400A by BRET assay relative to NT (8-13). It is filed as cell-based. For orientation: Bioluminescence resonance energy transfer reports proximity on the nanometre scale.

Numbered stars: 1 amine (or outer) side, 2 acyl side, 3 side chain; on linkers, the order of the positions; unused ones are H or OH. Square brackets hold non-standard residues; d marks the D form. Peptide text beside a SMILES is read from it. X2 = O=C([C@@H]1Cc2cc(O)ccc2CN1[*:1])[*:2]; Tle = CC(C)(C)[C@H](N)C(=O)O

T1 sequence (P30989 whole entry): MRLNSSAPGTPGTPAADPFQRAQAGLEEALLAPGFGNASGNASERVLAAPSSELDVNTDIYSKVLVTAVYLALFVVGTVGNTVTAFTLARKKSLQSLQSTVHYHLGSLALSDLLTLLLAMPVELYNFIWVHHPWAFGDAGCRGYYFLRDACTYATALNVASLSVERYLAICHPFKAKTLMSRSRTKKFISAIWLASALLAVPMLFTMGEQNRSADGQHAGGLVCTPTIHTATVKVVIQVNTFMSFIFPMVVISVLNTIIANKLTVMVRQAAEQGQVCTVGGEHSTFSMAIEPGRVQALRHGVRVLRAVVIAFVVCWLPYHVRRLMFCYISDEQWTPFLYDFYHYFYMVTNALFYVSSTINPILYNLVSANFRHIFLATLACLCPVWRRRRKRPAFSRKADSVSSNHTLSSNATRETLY
Sequence of Neurotensin receptor type 2 (O95665 whole entry): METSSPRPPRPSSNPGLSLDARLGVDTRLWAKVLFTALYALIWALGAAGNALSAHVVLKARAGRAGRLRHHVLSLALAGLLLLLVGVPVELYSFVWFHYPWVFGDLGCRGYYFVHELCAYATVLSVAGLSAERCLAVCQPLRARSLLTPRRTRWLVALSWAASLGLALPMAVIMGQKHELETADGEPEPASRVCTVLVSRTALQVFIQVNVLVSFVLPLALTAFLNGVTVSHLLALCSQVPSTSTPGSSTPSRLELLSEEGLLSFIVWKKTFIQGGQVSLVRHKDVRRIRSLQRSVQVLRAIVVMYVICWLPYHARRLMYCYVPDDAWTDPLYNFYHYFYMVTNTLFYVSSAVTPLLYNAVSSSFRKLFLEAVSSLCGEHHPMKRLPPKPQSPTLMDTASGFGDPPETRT

Consider `CC(C)C[C@H](NC(=O)[C@@H](NC(=O)[C@H](Cc1cccc(O)c1)NC(=O)[C@@H]1CCCN1C(=O)[C@H](CCCNC(=N)N)NC(=O)[C@@H](N)CCCNC(=N)N)C(C)(C)C)C(=O)O`, for which the Ki (in general, the equilibrium dissociation constant of an inhibitor or competing ligand from its target) in test [1] worked out at 93 nM; in test [2], 24 nM.
Regarding `CC(C)C[C@H](NC(=O)[C@@H](NC(=O)[C@H](Cc1ccc(O)cc1)NC(=O)[C@@H]1CCCN1C(=O)[C@H](CCCNC(=N)N)NC(=O)[C@@H](N)CCCNC(=N)N)C(C)(C)C)C(=O)O`, the Emax (usually the greatest response seen or fitted, relative to the assay's reference) in test [3] was 97%.
For the compound `CC(C)C[C@H](NC(=O)[C@@H](NC(=O)[C@@H]1Cc2cc(O)ccc2CN1C(=O)[C@@H]1CCCN1C(=O)[C@H](CCCNC(=N)N)NC(=O)[C@@H](N)CCCNC(=N)N)C(C)(C)C)C(=O)O` (H-RRP[X2][Tle]L-OH), the values for the Ki in test [1] and in test [2] were 6680 nM and 132 nM, respectively.
The corresponding values for `Cc1cc(O)cc(C)c1C[C@H](NC(=O)[C@@H]1CCCN1C(=O)[C@H](CCCNC(=N)N)NC(=O)[C@@H](N)CCCNC(=N)N)C(=O)N[C@H](C(=O)N[C@@H](CC(C)C)C(=O)O)C(C)(C)C` are 13.4 nM and 3 nM.
For `Cc1cc(O)cc(C)c1C[C@H](NC(=O)[C@@H]1CCCN1C(=O)[C@H](CCCNC(=N)N)NC(=O)C[C@@H](N)CCCNC(=N)N)C(=O)N[C@H](C(=O)N[C@@H](CC(C)C)C(=O)O)C(C)(C)C`, in that order: 2.3 nM and 0.11 nM.
